Measured values: ChEMBL document CHEMBL3885881, “DrugMatrix”

Species on record: Rattus norvegicus
Assay: DrugMatrix - Regimen: Daily Repeat
Format: toxicity, organism-based, Sprague-Dawley
Set-up: regimen Daily Repeat, gender Male, age 6-8 weeks
Conditions: in vivo, po, 47 mg/kg, route oral GAVAGE, dose level Low, vehicle .5 % CMC; for ABSOLUTE BASOPHIL / ABSOLUTE EOSINOPHIL / ABSOLUTE LYMPHOCYTE / ABSOLUTE MONOCYTE / ABSOLUTE SEGMENTED NEUTROPHIL / BASOPHIL / EOSINOPHIL / ERYTHROCYTE COUNT / HEMATOCRIT / HEMOGLOBIN / LEUKOCYTE COUNT / LYMPHOCYTE / MEAN CORPUSCULAR HEMOGLOBIN / MEAN CORPUSCULAR HEMOGLOBIN CONCENTRATION / MEAN CORPUSCULAR VOLUME / MONOCYTE / NEUTROPHIL / NUCLEATED RED BLOOD CELLS / PLATELET COUNT: tissue Blood
[1] = 72 h, tissue Plasma, time 3 day
[2] = 120 h, tissue Plasma, time 5 day

OCCOCCN1CCN(C2=Nc3ccccc3Sc3ccccc32)CC1 [QUETIAPINE]
ABSOLUTE BASOPHIL (72 h, time 3 day): 0 CELLS/uL | ABSOLUTE EOSINOPHIL (72 h, time 3 day): 0 CELLS/uL | ABSOLUTE LYMPHOCYTE (72 h, time 3 day): 7521.33 CELLS/uL | ABSOLUTE MONOCYTE (72 h, time 3 day): 22.33 CELLS/uL | ABSOLUTE SEGMENTED NEUTROPHIL (72 h, time 3 day): 789.67 CELLS/uL | BASOPHIL (72 h, time 3 day): 0% | EOSINOPHIL (72 h, time 3 day): 0% | ERYTHROCYTE COUNT (72 h, time 3 day): 5.57 x10E6/uL | HEMATOCRIT (72 h, time 3 day): 34.3% | HEMOGLOBIN (72 h, time 3 day): 13.87 G/DL | LEUKOCYTE COUNT (72 h, time 3 day): 8.33 x10E3/uL | LYMPHOCYTE (72 h, time 3 day): 90.33% | MEAN CORPUSCULAR HEMOGLOBIN (72 h, time 3 day): 24.93 pg | MEAN CORPUSCULAR HEMOGLOBIN CONCENTRATION (72 h, time 3 day): 40.43 G/DL | MEAN CORPUSCULAR VOLUME (72 h, time 3 day): 61.7 fL | MONOCYTE (72 h, time 3 day): 0.33% | NEUTROPHIL (72 h, time 3 day): 9.33% | NUCLEATED RED BLOOD CELLS (72 h, time 3 day): 0.33 /100WBC | PLATELET COUNT (72 h, time 3 day): 1115.67 x10E3/uL | ALANINE AMINOTRANSFERASE [1]: 48.33 u/L | ALBUMIN [1]: 4.63 G/DL | ASPARTATE AMINOTRANSFERASE [1]: 64.67 u/L | BLOOD UREA NITROGEN [1]: 15.33 mg/dL | CARBON DIOXIDE [1]: 31 mmol/L | CHLORIDE [1]: 101 MEQ/L | CHOLESTEROL [1]: 78.33 mg/dL | CREATINE PHOSPHOKINASE [1]: 126.33 u/L | CREATININE [1]: 0.17 mg/dL | GLUCOSE [1]: 143.33 mg/dL | LACTATE DEHYDROGENASE [1]: 116.33 u/L | LIPASE [1]: 12 u/L | POTASSIUM [1]: 6.23 MEQ/L | SODIUM [1]: 148.9 MEQ/L | TOTAL BILIRUBIN [1]: 0.2 mg/dL | TOTAL PROTEIN [1]: 6.03 G/DL | URIC ACID [1]: 1.03 mg/dL | ABSOLUTE BASOPHIL (120 h, time 5 day): 0 CELLS/uL | ABSOLUTE EOSINOPHIL (120 h, time 5 day): 0 CELLS/uL | ABSOLUTE LYMPHOCYTE (120 h, time 5 day): 13853.67 CELLS/uL | ABSOLUTE MONOCYTE (120 h, time 5 day): 281 CELLS/uL | ABSOLUTE SEGMENTED NEUTROPHIL (120 h, time 5 day): 1032 CELLS/uL | BASOPHIL (120 h, time 5 day): 0% | EOSINOPHIL (120 h, time 5 day): 0% | ERYTHROCYTE COUNT (120 h, time 5 day): 6.08 x10E6/uL | HEMATOCRIT (120 h, time 5 day): 38.03% | HEMOGLOBIN (120 h, time 5 day): 15.07 G/DL | LEUKOCYTE COUNT (120 h, time 5 day): 15.17 x10E3/uL | LYMPHOCYTE (120 h, time 5 day): 91.33% | MEAN CORPUSCULAR HEMOGLOBIN (120 h, time 5 day): 24.83 pg | MEAN CORPUSCULAR HEMOGLOBIN CONCENTRATION (120 h, time 5 day): 39.6 G/DL | MEAN CORPUSCULAR VOLUME (120 h, time 5 day): 62.6 fL | MONOCYTE (120 h, time 5 day): 2% | NEUTROPHIL (120 h, time 5 day): 6.67% | NUCLEATED RED BLOOD CELLS (120 h, time 5 day): 0 /100WBC | PLATELET COUNT (120 h, time 5 day): 1335.33 x10E3/uL | ALANINE AMINOTRANSFERASE [2]: 39.33 u/L | ALBUMIN [2]: 4.63 G/DL | ASPARTATE AMINOTRANSFERASE [2]: 90.67 u/L | BLOOD UREA NITROGEN [2]: 20 mg/dL | CARBON DIOXIDE [2]: 25 mmol/L | CHLORIDE [2]: 96.67 MEQ/L | CHOLESTEROL [2]: 61.33 mg/dL | CREATINE PHOSPHOKINASE [2]: 403.67 u/L | CREATININE [2]: 0.22 mg/dL | GLUCOSE [2]: 148 mg/dL | LACTATE DEHYDROGENASE [2]: 287 u/L | LIPASE [2]: 9.33 u/L | POTASSIUM [2]: 7.45 MEQ/L | SODIUM [2]: 142.07 MEQ/L | TOTAL BILIRUBIN [2]: 0.13 mg/dL | TOTAL PROTEIN [2]: 6.67 G/DL
